Source: US20250033966A1, “MANUFACTURING METHOD FOR OBTAINING NOVEL CHLORINE OXIDE COMPOSITION FROM DEGRADED HYPOCHLORITE” (HONBUSANKEI CO., LTD., priority 2018, published 2025)

Tests used:
[1] = ORP (oxidation-reduction potential) of mixtures versus sodium hypochlorite solution of the same concentration; type: physicochemical; details: for ORP: Only solution
[2] = system: overall viable bacteria count; assay: Bactericidal effect on green onions, overall viable bacteria count; type: cell-based; details: green onion, immersion 30 minutes
E. coli group = assay: Bactericidal effect on green onions, E. coli group count; type: cell-based; details: green onion, immersion 30 minutes

ORP ([1]; 200 ppm): 554 mV
ORP ([1]; 1000 ppm): 560 mV
ORP ([1]; Undiluted solution (6%)): 560 mV
ORP (oxidation-reduction potential) / oxidizing power upon dilution ([1]; diluted): no change
SMILES: OCl [sodium hypochlorite]
Overall viable bacteria count ([2]; 200 ppm, D + 0): 5.00 log CFU
Overall viable bacteria count ([2]; 200 ppm, D + 1): 5.72 log CFU
Overall viable bacteria count ([2]; 1000 ppm, D + 0): 3.57 log CFU
Overall viable bacteria count ([2]; 1000 ppm, D + 1): 5.61 log CFU
E. coli group count (E. coli group; 200 ppm, D + 3): 5.66 log CFU
E. coli group count (E. coli group; 1000 ppm, D + 2): 2.64 log CFU
E. coli group count (E. coli group; 1000 ppm, D + 3): 4.73 log CFU
